Data taken from US20080009546A1 (Chevron U.S.A. Inc., priority 2005, published 2008).
Read-outs that look alike come from different tables or passages of the source.

How the values were obtained:
[1] = tested on: NMDA receptor; assay: Whole-cell voltage-clamp recordings of NMDA evoked currents in hypocretin neurons (hypothalamic slices); format: cell-based, mouse; settings: for inhibition of the peak amplitude of NMDA evoked currents: bath application, -60 mV, mean±SEM
[2] = tested on: NMDA receptor; assay: [3H]MK-801 binding assay, NMDA receptors in guinea pig brain membranes; settings: for Relative affinity: compared to that of Memantine; for Ki: guinea pig brain membrane preparation (Table 29), read-out: Ki
Procedure: Hartley guinea pigs were sacrificed, and their brains were quickly removed and weighed. The brains then were homogenized in 50 mM Tris HCl buffer, pH 7.7, using a Polytron homogenizer. The homogenate was centrifuged at 40,000×g for 15 min, rehomogenized, and centrifuged again. The final pellet was resuspended in Tris-HCl, pH 7.7, at a final concentration of 6.67 mg original wet weight of tissue/ml. […] The samples were then filtered through glass fiber filters on a Tomtec cell harvester. The filters were washed 3 times with 3 ml of cold buffer. Filters were dried overnight and counted next day on a Wallac Betaplate Reader.
The binding experiments were conducted as follows. […] For each compound, graphs were prepared containing individual competition curves obtained for that compound. IC50 values and Hill coefficients were calculated using the program Prism. Ki values were calculated using the Chang Prusoff transformation: Ki=IC50/(1+L/Kd)
where L is radioligand concentration and Kd is the binding affinity of the radioligand, as determined previously by saturation analysis. […] In each experiment, one standard compound was simultaneously run on each 96 well plate.

[3] = tested on: primary neurons from rat cerebral cortex; assay: NMDA-induced LDH release assay in primary cortical neurons (neuroprotection); format: cell-based; settings: Rattus norvegicus, Primary neuron; two experiments; 300 uM NMDA + 50 μM glycine 15 minutes, LDH after 24 hours; read-out: average EC50 (±SD), NMDA-induced LDH release
Procedure: The neuroprotective properties of drugs have been studied in vitro, using neurons cultured from cortex, cerebellum or retina. […] Neurotoxicity is determined in this assay by measuring lactate dehydrogenase (LDH), a method which is simple, accurate and reproducible. We conducted pilot studies to test if poly-lysine-coated plates would be suitable as a matrix upon which to plate fetal neurons, compared to astrocyte-coated plates. We also compared the use of growth medium to neurobasal medium supplemented with B27 in the pilot experiments. The concentrations of NMDA (300-500 μM), glycine (10-50 μM), and memantine (10-100 μM) were varied, and optimum concentrations and times determined from these pilot studies were then chosen for the main study. The assay is described below.
Fetal rat neocortical cells were cultured on a mouse astroglial feeder layer. To obtain mouse astroglial cells for the feeder layer, cortices were harvested from 1-day old Swiss Webster mice (Charles River, Hollister, Calif.) according to the procedure described by Rose et al (1993). After dissecting cortices in ice-cold dissecting medium, they were minced and incubated in 0.09% trypsin in media stock for 1 hr, followed by resuspension in growth medium containing 10% equine serum and 10% fetal bovine serum. A single-cell suspension was obtained by triturating through fire-bored glass pipettes, and the resulting cell suspension was plated at a density of 0.5-0.75 hemispheres/24-well plate/9.6 ml, with 0.4 ml/well. Plates were incubated in a humidified incubator at 37° C., 5% CO2. Astroglial cells become confluent in about 2-3 weeks, at which time these cultures are ready to be used as feeder layers upon which neuronal cultures can be plated. Neuronal cells were obtained from gestational Sprague-Dawley rats E16-E18, using a similar dissection procedure. Rat embryos were dissected to obtain cortical tissue, which was plated as a single-cell suspension at a density of 1.4 hemispheres/24-well plate/9.6 ml, with 0.4 ml/well. These cells were plated on the existing astroglial feeder layer, and were incubated at 37° C., 5% CO2. After 5 days in culture, cytosine arabinoside (10 μM) was added to the wells to inhibit glial cell proliferation, and after 24 hours, the medium was replaced with fresh growth medium. Cells were fed with fresh growth medium every 2 days, until the experiments were performed. For coating plates with poly-lysine, we used poly-d-lysine hydrobromide (Sigma Cat # P7280) at a concentration of 0.1 mg/ml to coat each well using a minimum volume of 0.2 ml/well. After coating for 5 minutes, the solution was aspirated and wells were rinsed thoroughly with sterile tissue culture grade water. After drying for 2 hours, plates were ready for use. Neuronal cultures were plated onto poly-lysine-coated plates at the same density as above. For the pilot study, some of the cultures were fed with 1:1 ratio of growth medium: neurobasal medium (GIBCO)+B-27 supplement (2%), while the rest of the cultures were fed with growth medium alone (Losi et al., 2006). For the main study, we used astroglial feeder layers to plate the neuronal cultures, and used a mix (1:1) of growth medium with neurobasal medium+B-27 supplement for feeding the cultures.
After 11-14 days in culture, neuronal cells were confluent and experiments were performed. Cells were washed twice using sterile Locke's buffer (154 mM NaCl, 5.6 mM KCl, 2.3 mM CaCl2, 3.6 mM NaHCO3, 5.5 mM D-glucose, 5 mM HEPES, pH 7.4), and then exposed to the various treatment compounds. […] After 15 minutes, cultures were washed twice and incubated overnight in media stock. After 24 hours, supernatants and lysates were collected to measure LDH activity. LDH activity was measured by the reduction of NAD, which was utilized in the stoichiometric conversion of a tetrazolium dye using a kit (Sigma TOX-7). Supernatants were removed from the wells and centrifuged before LDH measurements. The adherent cells were lysed to obtain total LDH. […]

[4] = tested on: C57/BL6 male mice; assay: Rotarod test (balance and coordination, side effects)
Procedure: The side effects of the compounds was primarily evaluated using the rotarod test, which mainly assesses the balancing and coordination of mice. The comparisons were made on fall time of the mice between the first measure (pre-treatment) and second measure taken 20 min after the drug/vehicle injection in the same group (paired t-test). […] Comparisons of the rotatod fall times after drug/vehicle dosing were made between drug treatment and control groups (unpaired t-test).

[5] = tested on: C57/BL6 male mice; settings: for # of deaths / # of extensions: 6 mice
[6] = tested on: C57/BL6 male mice; assay: Pentylenetetrazol (PTZ)-induced seizure/death model; format: in vivo, mouse; settings: for # mice with L3 seizure / # mice with L4 seizure / # of deaths within 30 min: 6 mice; for Time to death: mice that died within 30 min
Procedure: Although the protection against death is the key endpoint, other effects of the compounds on PTZ-induced seizures were also assessed using multiple parameters. For the mice that did die within the 30 minute observation window, the time of death was also compared. […] The seizure occurrence rate, onset time and number of level 3 (L3) seizure (repetitive seizures but the animal can still stand) and level 4 (L4) seizure (repetitive seizures and the animal loses righting) are also analyzed. The MDT compound (30 mg/kg) treated groups show a certain degree of improvement compared to control. No data from MK801 or memantine were included because the seizures occurring under these treatments are totally different from the control or MDT injected groups due to side effects (“high jumping”).

## NC12CC3C4CC5CC3C(C1)C(C5)C4C2 [MDT-3]
[1]; 10 μM
  inhibition of the peak amplitude of NMDA evoked currents: did not produce inhibition
[1]; 100 μM
  inhibition of the peak amplitude of NMDA evoked currents: did not produce inhibition
[2]
  Relative affinity: 0.021
  Ki: 34.6 ± 3.7 µM

## CC12CC3(N)CC4C1CC1CC2C(N)(C3)C4(C)C1 (stereo not drawn) [MDT-9, 1,6-dimethyl-2,4-diaminodiamantane]
[1]; 10 μM
  inhibition of the peak amplitude of NMDA evoked currents: 13.2±9%
[1]; 100 μM
  inhibition of the peak amplitude of NMDA evoked currents: 15.2±4.8%
[2]
  Relative affinity: 0.032
  Ki: 22.5 ± 0.9 µM

## CC12CC3(N)CC4C5CC(CC41)CC2C5C3 [MDT-22, 1-methyl-9-aminodiamantane]
[3]
  EC50: 56.5 ± 14.6 µM
[1]; 10 μM
  inhibition of the peak amplitude of NMDA evoked currents: 19±3.1%
[1]; 100 μM
  inhibition of the peak amplitude of NMDA evoked currents: 45±12.1%
[1]; washout of the compound
  reversibility of inhibition of NMDA evoked currents upon washout: reversible
[4]; after, 20 min after 10 mg/kg i.p.
  Fall Time: 44.58 ± 4.58 min
[4]; after, 20 min after 30 mg/kg i.p.
  Fall Time: 44.93 ± 5.45 min
[4]; before (pre-treatment), 10 mg/kg group
  Fall Time: 33.56 ± 3.91 min
[4]; before (pre-treatment), 30 mg/kg group
  Fall Time: 45.03 ± 6.02 min
[5]; 10 mg/kg i.p.
  Extension rate: 1.00
  Mortality rate: 0.50
  # of deaths: 3
  # of extensions: 6
[5]; 30 mg/kg i.p.
  Extension rate: 0.83
  Mortality rate: 0.33
  # of deaths: 2
  # of extensions: 5
[5]; 10 and 30 mg/kg i.p., mice
  MES-induced death: dose dependent reduction in MES-induced death
[6]; 10 mg/kg i.p.
  # L3 per mouse: 2.00 ± 0.58
  # L4 per mouse: 3.85 ± 2.28
  L3 onset time: 2.80 ± 1.00 min
  L3 seizure rate: 0.50
  L4 onset time: 7.90 ± 1.70 min
  L4 seizure rate: 1.00
  Mortality rate: 1.00
  # mice with L3 seizure: 3
  # mice with L4 seizure: 6
  Time to death: 9.60 ± 1.80 min
[6]; 10 mg/kg i.p., PTZ 100 mg/kg
  # of deaths within 30 min: 6
[6]; 30 mg/kg i.p.
  # L3 per mouse: 1.67 ± 0.50
  # L4 per mouse: 1.17 ± 0.19
  L3 onset time: 5.10 ± 2.30 min
  L3 seizure rate: 1.00
  L4 onset time: 10.20 ± 3.00 min
  L4 seizure rate: 1.00
  Mortality rate: 0.67
  # mice with L3 seizure: 6
  # mice with L4 seizure: 6
  Time to death: 7.70 ± 2.10 min
[6]; 30 mg/kg i.p., PTZ 100 mg/kg
  # of deaths within 30 min: 4
[6]; 10 and 30 mg/kg i.p., PTZ 100 mg/kg, 30 min observation
  PTZ-induced death: a certain reduction in PTZ-induced death
